Experimental data published in paper PMC9603946, “On the Sensitivity of the Virion Envelope to Lipid Peroxidation” (Microbiology Spectrum, 2022).

Assays:
Vero cells [1] = assay: Vero cell lipid peroxidation probed with C11-Bodipy; format: cell-based, African green monkey; conditions: for EC50: Chlorocebus sabaeus, Bodipy probe
Procedure: (§1) The effects of peroxidators have been commonly evaluated against purified lipids and liposomes as a proxy, but they have not been evaluated against virions ([50], [53][–][55]). We instead directly evaluated the extent of virion lipid peroxidation.
To evaluate Vero cell lipoperoxidation with C11-Bodipy, 7.5 × 10^3 cells were seeded into each well of 96-well plates and incubated for 18 h at 37°C in 5% CO2 before preloading them with 1 μM C11-Bodipy for 30 min at 37°C. […] Two hours later, the cells were washed twice and lysed with DMSO:isopropanol. Fluorescence was evaluated in a TECAN Infinite M200 Pro at 550 nm excitation and 580 to 630 nm emission with the reading peak at 600 nm.
(§2) To evaluate the effects of a lipid soluble antioxidant, cells or virions were preloaded with vitamin E-BSA for 3 h at 37°C. Vitamin E-BSA containing medium was removed, and the cells were washed twice with DMEM. Liperfluo (20 or 10 μM for cells or virions, respectively) or C11-Bodipy (1 μM for cells or 0.1 mol% for virions) were preloaded into the cells or virions for 30 min at 37°C.
(§3) To evaluate the effects of water soluble antioxidants, liperfluo (20 μM for cells or 10 μM for virions) or C11-Bodipy (1 μM for cells or 0.1 mol% for virions) were preloaded into the cells or virions for 30 min at 37°C. […] Fluorescence was evaluated in a TECAN Infinite M200 Pro at 515 nm excitation and 545 nm emission for liperfluo or at 550 nm excitation and 580 to 630 nm emission for C11-Bodipy.

Vero cells [2] = assay: Vero cell lipid peroxidation probed with liperfluo; format: cell-based, African green monkey; conditions: Chlorocebus sabaeus, Vero, Liperfluo probe, read-out: CP50 (the source's name)
Procedure: as §1
To evaluate cell lipid peroxidation using liperfluo, 7.5 × 10^3 Vero cells were seeded into each well of 96-well plates and incubated for 18 h at 37°C in 5% CO2. […] Two hours later, the cells were washed twice, and the fluorescence was evaluated in a TECAN Infinite M200 Pro at 515 nm excitation and 545 nm emission.
as §2, §3

Vero cells [3] = assay: Viability of Vero cells infected with AMVN-pretreated virions
Procedure: (§4) The inocula were removed, the cells were washed, and the viability was immediately evaluated, mimicking the conditions used to test the direct exposure of the cells to the peroxidators.
(§5) After 1 h at 37°C, the cells were washed, and cell viability was evaluated as described.

HFF cells = assay: Viability of HFF cells infected with AMVN-pretreated virions
Procedure: as §4, §5

[4] = pretreated virions diluted 1:100

CC(C)CC(C)(C#N)N=NC(C)(C#N)CC(C)C (centres unmarked) [AMVN, 2,2′-azobis(2,4-dimethylvaleronitrile)]
lowest concentration affecting cell lipid peroxidation (Vero cells [1]; C11-Bodipy (Fig. 8)): 2.5 mM
EC50 (Vero cells [1]; no antioxidant, read-out: CP50 (concentration of peroxidant that results in 50% peroxidation in cell lipids)): 2.1 mM
EC50 (Vero cells [1]; vitamin C, read-out: CP50 (the source's name)): 1.7 mM
EC50 (Vero cells [1]; vitamin E, read-out: CP50 (the source's name)): 3.5 mM
EC50 (Vero cells [2]; no antioxidant): 12.6 mM
EC50 (Vero cells [2]; vitamin C): 11.1 mM
EC50 (Vero cells [2]; vitamin E): 16.1 mM
decrease of infected cell viability at the highest AMVN concentration (Vero cells [3]; AMVN carried by virions): 20 to 30%
concentration from which AMVN carried by virions had minor effects on infected cell viability (Vero cells [3]; [4]): 2 mM
decrease of infected cell viability at the highest AMVN concentration (HFF cells; AMVN carried by virions): 20 to 30%
concentration from which AMVN carried by virions had minor effects on infected cell viability (HFF cells; [4]): 3 mM
